We go through eleven compounds from patent US7700593B2, “Imidazo- and triazolo-pyridine compounds and methods of use thereof” (Amgen Inc., priority 2006, dated 2010).

For one experiment, the system named is THP1 cells. Put plainly: Lipopolysaccharide-activated THP1 cell TNF production assay. The format is cell-based, human. Particulars: Homo sapiens, THP-1; LPS-induced TNF-α production in THP1 cells. How it is done:
Lipopolysaccharide-Activated THP1 Cell TNF Production Assay
THP1 cells are resuspended in fresh THP1 media (RPMI 1640, 10% heat-inactivated FBS, 1×PGS, 1×NEAA, plus 30 μM βME) at a concentration of 1E6/mL. One hundred microliters of cells per well are plated in a polystyrene 96-well tissue culture. One microgram per mL of bacterial LPS is prepared in THP1 media and is transferred to the wells. Test compounds are dissolved in 100% DMSO and are serially diluted 3-fold in a polypropylene 96-well microtiter plate (drug plate). HI control and LO control wells contain only DMSO. One microliter of test compound from the drug plate followed by 10 μL of LPS are transferred to the cell plate. The treated cells are induced to synthesize and secrete TNF-α at 37° C. for 3 h. Forty microliters of conditioned media are transferred to a 96-well polypropylene plate containing 110 μL of ECL buffer (50 mM Tris-HCl pH 8.0, 100 mM NaCl, 0.05% Tween 20, 0.05% NaN3 and 1% FBS) supplemented with 0.44 nM MAB610 monoclonal Ab (R&D Systems), 0.34 nM ruthenylated AF210NA polyclonal Ab (R&D Systems) and 44 μg/mL sheep anti-mouse M280 Dynabeads (Dynal). After a 2 h incubation at room temperature with shaking, the reaction is read on the ECL M8 Instrument (IGEN Inc.). A low voltage is applied to the ruthenylated TNF-α immune complexes, which in the presence of TPA (the active component in Origlo), results in a cyclical redox reaction generating light at […]. The amount of secreted TNF-α in the presence of compound compared with that in the presence of DMSO vehicle alone (HI control) is calculated using the formula: % control (POC)=(cpd−average LO)/(average HI−average LO)*100. Data (consisting of POC and inhibitor concentration in μM) is fitted to a 4-parameter equation (y=A+((B−A)/(1+((x/C)^D))), where A is the minimum y (POC) value, B is the maximum y (POC), C is the x (cpd concentration) at the point of inflection and D is the slope factor) using a Levenburg-Marquardt non-linear regression algorithm.

The subject of the next experiment is monocytes. The experiment can be described thus: Lipopolysaccharide-activated monocyte TNF production assay (LPS induced TNF release). To be noted: Homo sapiens, Monocyte; LPS induced TNF release from monocytes; read-out: LPS induced TNFa. The format is cell-based, human. As for the experimental part: Lipopolysaccharide-Activated Monocyte TNF Production Assay
Test compounds were evaluated in vitro for the ability to inhibit the production of TNF by monocytes activated with bacterial lipopolysaccharide (LPS). Fresh residual source leukocytes (a byproduct of plateletpheresis) were obtained from a local blood bank, and peripheral blood mononuclear cells (PBMCs) were isolated by density gradient centrifugation on Ficol-Paque Plus (Pharmacia). PBMCs were suspended at 2×10^6/mL in DMEM supplemented to contain 2% FCS, 10 mM, 0.3 mg/mL […], 100 U/mL penicillin G and […] streptomycin sulfate (complete media). Cells were plated into Falcon flat bottom, 96 well culture plates (200 μL/well) and cultured overnight at 37° C. and 6% CO2. Non-adherent cells were removed by washing with 200 μl/well of fresh medium. Wells containing adherent cells (˜70% monocytes) were replenished with 100 μL of fresh medium.
Preparation of Test Compound Stock Solutions
Test compounds were dissolved in […]. Compound stock solutions were prepared to an initial concentration of […]. Stocks were diluted initially to […] in complete media. Nine two-fold serial dilutions of each compound were then prepared in complete medium.
Treatment of Cells with Test Compounds and Activation of TNF Production with Lipopolysaccharide
One hundred microliters of each test compound dilution were added to microtiter wells containing adherent monocytes and 100 μL complete medium. Monocytes were cultured with test compounds for 60 min at which time 25 μL of complete medium containing 30 ng/mL lipopolysaccharide from E. coli K532 were added to each well. Cells were cultured an additional 4 hrs. Culture supernatants were then removed and TNF presence in the supernatants was quantified using an ELISA.
Flat bottom, 96 well Corning High Binding ELISA plates were coated overnight (4° C.) with 150 μL/well of 3 μg/mL murine anti-human TNF-α MAb (R&D Systems #MAB210). Wells were then blocked for 1 h at room temperature with 200 μL/well of CaCl2-free ELISA buffer supplemented to contain 20 mg/mL BSA (standard ELISA buffer: […], 150 mM NaCl, 2 mM CaCl2, 0.15 mM thimerosal, pH 7.4). Plates were washed and replenished with 100 μL of test supernatants (diluted 1:3) or standards. Standards consisted of eleven 1.5-fold serial dilutions from a stock of 1 ng/mL recombinant human TNF (R&D Systems). Plates were incubated at room temperature for 1 h on orbital shaker (300 rpm), washed and replenished with 100 μL/well of 0.5 μg/mL goat anti-human TNF-α (R&D systems #AB-210-NA) biotinylated at a 4:1 ratio. Plates were incubated for 40 min, washed and replenished with 100 μL/well of alkaline phosphatase-conjugated streptavidin (Jackson ImmunoResearch #016-050-084) at 0.02 μg/mL. Plates were incubated 30 min, washed and replenished with 200 μL/well of 1 mg/mL of p-nitrophenyl phosphate.
Standard curve data were fit to a second order polynomial and unknown TNF-α concentrations determined from their OD by solving this equation for concentration. TNF concentrations were then plotted vs. test compound concentration using a second order polynomial. This equation was then used to calculate the concentration of test compounds causing a 50% reduction in TNF production.

The target in another experiment is p38α (Homo sapiens, UniProt Q16539). The experiment can be described thus: p38 in-vitro HTRF enzyme assay. To be noted: IC50 value ranges. The class given is biochemical. How it is done: p38 In-Vitro HTRF Enzyme Assay
The compounds of the invention can be tested for their respective affinities for the p38 protein using a conventional p38 in-vitro enzyme activity assay. For example, a P38-alpha HTRF assay may be used to measure the protein's in-vitro phosphorylation activity, and the data analyzed using time resolved fluorimetry techniques (FRET). A p38 HTRF assay is as follows. The kinase reaction buffer for p38α, p38β, p38δ and p38γ HTRF assays consists of 50 mM Tris-pH 7.5, 5 mM MgCl2, 0.1 mg/mL BSA, 100 μM Na3VO4 and 0.5 mM DTT. The HTRF detection buffer contains 100 mM HEPES-pH 7.5, 100 mM NaCl, 0.1% BSA, 0.05% Tween-20, and 10 mM EDTA. Each compound was dissolved in 100% DMSO and serially diluted (3 fold, 10 point) in a polypropylene 96-well microtiter plate (drug plate). The final starting concentration of the compound in the p38α and p38β enzymatic assays was about 1 μM. The final starting concentration of each compound in the p38δ and p38γ enzymatic assays was about 10 μM. The p38α, p38β, p38δ and p38γ kinase reactions were carried out in a polypropylene 96-well black round bottom assay plate in total volume of 30 μL kinase reaction buffer. Appropriate concentration of purified and activated enzyme (recombinant human) was mixed with indicated concentration of ATP and 100 nM GST-ATF2-Avitag, in the presence or absence (HI control) of each compound. In the absence of enzyme, the background was measured as LO control. HI controls and LO controls contained only DMSO. The reaction was allowed to incubate for 1 hour at RT. […] After 60 minutes incubation at room temperature, the assay plate was read in a Discovery Plate Reader. The wells were excited with coherent 320 nm light and the ratio of delayed ([…] post excitation) emissions at […] (native europium fluorescence) and 665 nm (europium fluorescence transferred to allophycocyanin—an index of substrate phosphorylation) was determined (Park et al, 1999). The resulting data was analyzed by taking the proportion of substrate phosphorylated in the kinase reaction in the presence of each individual compound and comparing it with that phosphorylated in the presence of DMSO vehicle alone (HI control). The data was calculated using the formula: % control (POC)=(compound−average LO)/(average HI−average LO)*100. Data (consisting of POC and inhibitor concentration in μM) was fitted to a 4-parameter equation (y=A+((B−A)/(1+((x/C)^D))), where A is the minimum y (POC) value, B is the maximum y (POC), C is the x (compound concentration) at the point of inflection and D is the slope factor, using a Levenburg-Marquardt non-linear regression algorithm. The inhibition constant (Ki) of the inhibitor was estimated from the IC50 (compound concentration at the point of inflection C) using the Cheng-Prussof equation: Ki=IC50/(1+S/Km), where S is the ATP substrate concentration, and Km is the Michaelis constant for ATP as determined experimentally. All results were expressed as the mean±the standard error of the mean. Data acquisition and non-linear regression algorithms were performed using Activity Base v5.2 and XLfit software v4.1 respectively. Additional assay information may be obtained in Park Y W, Cummings R T, Wu L, et al. Homogeneous Proximity Tyrosine Kinase Assays Scintillation Proximity Assay versus Homogeneous Time-Resolved Fluorescence. Analytical Biochemistry. 1999; 269: 94-104.
For orientation: TR-FRET usually uses a lanthanide donor and a delayed reading to cut background.

p38α, sequence (Q16539 whole entry): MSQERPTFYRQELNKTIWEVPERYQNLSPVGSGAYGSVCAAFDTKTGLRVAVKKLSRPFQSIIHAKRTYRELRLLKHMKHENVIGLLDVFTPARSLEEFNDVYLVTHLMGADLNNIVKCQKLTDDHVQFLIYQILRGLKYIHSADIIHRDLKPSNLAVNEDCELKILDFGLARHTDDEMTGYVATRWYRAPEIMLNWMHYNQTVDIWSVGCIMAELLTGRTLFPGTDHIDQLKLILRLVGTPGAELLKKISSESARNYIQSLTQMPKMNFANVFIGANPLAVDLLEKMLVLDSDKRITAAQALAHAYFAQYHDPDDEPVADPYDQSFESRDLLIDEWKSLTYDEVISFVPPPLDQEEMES

As to `Cc1ccc(C(=O)Nc2ccnn2C)cc1-c1ccn2c(-c3ccccc3F)nnc2c1` [Example 30, 3-(3-(2-fluorophenyl)[1,2,4]triazolo[4,3-a]pyridin-7-yl)-4-methyl-N-(1-methyl-1H-pyrazol-5-yl)benzamide], the results for the IC50 in the experiment with THP1 cells, with monocytes and against p38α were 0.025 to 0.1 µM, 0.025 to 0.1 µM and less than 0.025 µM, respectively.

For the compound `Cc1ccc(C(=O)NC2CC2)cc1-c1ccn2c(C3CCCCC3)nnc2c1` [Example 94, 3-(3-cyclohexyl[1,2,4]triazolo[4,3-a]pyridin-7-yl)-N-cyclopropyl-4-methylbenzamide], the IC50 with THP1 cells is 0.025 to 0.1 µM; in the experiment with monocytes, 0.1 to 0.25 µM; on p38α, less than 0.025 µM.

For the compound `Cc1ccc(C(=O)Nc2ccnn2C)cc1-c1ccn2c(-c3cc(F)ccc3Cl)nnc2c1` [Example 47, 3-(3-(2-chloro-5-fluorophenyl)[1,2,4]triazolo[4,3-a]pyridin-7-yl)-4-methyl-N-(1-methyl-1H-pyrazol-5-yl)benzamide], the results for the IC50 in the experiment with THP1 cells, in the experiment with monocytes and at p38α were less than 0.025 µM, 0.025 to 0.1 µM and less than 0.025 µM, respectively.

In the case of `Cc1ccc(C(=O)NC2CC2)cc1-c1ccn2c(-c3cccnc3C)nnc2c1` [Example 34, N-cyclopropyl-4-methyl-3-(3-(2-methyl-3-pyridinyl)[1,2,4]triazolo[4,3-a]pyridin-7-yl)benzamide], the IC50 in the experiment on THP1 cells is 0.025 to 0.1 µM; in the experiment with monocytes it was 0.1 to 0.25 µM; at p38α it was 0.025 to 0.1 µM.

Consider `CCc1ccccc1-c1nnc2cc(-c3cc(C(=O)NC4CC4)ccc3C)ccn12` [Example 103, N-cyclopropyl-3-(3-(2-ethylphenyl)[1,2,4]triazolo[4,3-a]pyridin-7-yl)-4-methylbenzamide], for which the figures for the IC50 with THP1 cells, in the experiment with monocytes and against p38α were 0.025 to 0.1 µM, 0.1 to 0.25 µM and less than 0.025 µM, respectively.

Turning to `Cc1cccc(Cl)c1-c1nnc2cc(-c3cc(C(=O)NC4CC4)cc(F)c3C)ccn12` [Example 91, 3-(3-(2-chloro-6-methylphenyl)[1,2,4]triazolo[4,3-a]pyridin-7-yl)-N-cyclopropyl-5-fluoro-4-methylbenzamide], the IC50 in the experiment on THP1 cells, in the experiment with monocytes and at p38α was less than 0.025 µM each time.

`Cc1ccc(C(=O)NC2(C)CC2)cc1-c1ccn2c(-c3ccccc3Cl)nnc2c1` [Example 11, 3-(3-(2-chlorophenyl)[1,2,4]triazolo[4,3-a]pyridin-7-yl)-4-methyl-N-(1-methylcyclopropyl)benzamide]: the IC50 in the experiment on THP1 cells was 0.025 to 0.1 µM; with monocytes it was 0.025 to 0.1 µM; against p38α, less than 0.025 µM.

On to `Cc1ccc(C(=O)NC2CC2)cc1-c1ccn2c(C(C)C)nnc2c1` [Example 27, N-cyclopropyl-4-methyl-3-(3-(1-methylethyl)[1,2,4]triazolo[4,3-a]pyridin-7-yl)benzamide], for which the values for the IC50 in the experiment with THP1 cells and at p38α were 0.025 to 0.1 µM and less than 0.025 µM, respectively.

On to `Cc1ccc(C(=O)NC2CC2)cc1-c1ccn2c(C3(C(F)(F)F)CC3)nnc2c1` [Example 21, N-cyclopropyl-4-methyl-3-(3-(1-(trifluoromethyl)cyclopropyl)[1,2,4]triazolo[4,3-a]pyridin-7-yl)benzamide], for which the IC50 in the experiment on THP1 cells and on p38α was less than 0.025 µM in each case.

For `Cc1ccc(C(=O)Nc2ccnn2C)cc1-c1ccn2c(C3(C(F)(F)F)CC3)nnc2c1` [Example 20, 4-methyl-N-(1-methyl-1H-pyrazol-5-yl)-3-(3-(1-(trifluoromethyl)cyclopropyl)[1,2,4]triazolo[4,3-a]pyridin-7-yl)benzamide], the IC50 with THP1 cells and at p38α was less than 0.025 µM each time.

On to `Cc1ccc(C(=O)NC2CC2)cc1-c1ccn2c(-c3ccc(S(C)(=O)=O)cc3Cl)nnc2c1` [Example 26, 3-(3-(2-chloro-4-(methylsulfonyl)phenyl)[1,2,4]triazolo[4,3-a]pyridin-7-yl)-N-cyclopropyl-4-methylbenzamide], for which the IC50 with THP1 cells is 0.1 to 0.25 µM; on p38α, less than 0.025 µM.
